The experiment relates to Primary human keratinocytes (NHK). In words: Mitochondrial ROS in keratinocytes, dihydrorhodamine labeling quantified by FACS. It counts as cell-based. The conditions noted are these: NHK pretreated one hour, basal untreated = 100. As to the method:
Primary human keratinocytes (NHK) were isolated from the foreskin of healthy children and cultured in a serum-free medium supplemented with bovine pituitary extract (250 μg/mL) and EGF (0.25 ng/mL). The NHKs are then seeded onto 6-well plates and incubated in a controlled atmosphere. When the keratinocytes reach 70 to 80% confluence, the cells are pretreated, or not, for one hour with various components. As a positive control, the NHKs are pretreated for one hour with […] (100 μM). The plates are then washed 3 times with a PBS solution before incubating the pretreated NHKs for one hour in the presence of H2O2 (100 μM) or LPS (100 ng/mL). At the end of the incubation, the cells are incubated in a solution of dihydrorhodamine (5 μM) for 30 minutes at 37° C., which allows for the labeling of ROS, particularly mitochondrial ROS. After 3 washes with a PBS solution, the mitochondrial ROS are quantified by FACS.

As to Sinapine, the “Mitochondrial ROS Level (%)” value (no stress treatment (—), sinapine 100 μM) was 100%; the “Mitochondrial ROS Level (%)” value (then H2O2 (100 μM) one hour, H2O2 alone = 352) was found to be 100%; the “Mitochondrial ROS Level (%)” value (then LPS (100 ng/mL) one hour, LPS alone = 124) is 97%.

The values above are taken from patent US20250161377A1, “COMPOSITION COMPRISING AT LEAST ONE BIFIDOBACTERIUM STRAIN FOR THE TREATMENT OF VITILIGO” (INSTITUT NATIONAL DE LA SANTE ET DE LA RECHERCHE MEDICALE, priority 2022, published 2025).
